# Laboratory results from PubChem BioAssay AID463074 (Broad Institute, 2010).
# Several values for one entry are separate records, joined by “and”; a condition that tells them apart may be missing. Equal values may be shown once. Activity calls are given as the source filed them.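 Rule for the calls: active = AC50 no more than tenfold above the top dose tested, or full inhibition at every dose with a flat fit (cut at about 19 µM in these data); inconclusive = flat curve fit with inhibition between 30% and 70%, or poor fit; inactive = AC50 more than tenfold above the top dose tested.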
# Test system: HMLE_sh_eGFP viability, CellTiter-Glo luminescence, 72 h
# Experiment: viability loss of HMLE_sh_eGFP cells – cell-based, luminescence, counter-screen for HMLE_sh_ECad selective toxicity project, dose response (AID 463074);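 note: counterscreen control line to flag general toxicity for the HMLE_sh_ECad screen; potency for loss of viability as luminescence drops below DMSO wells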
row,Structure (SMILES),AC50
1,Cc1ccc(NC(=S)Nc2cccc3cnccc23)cc1C,> 19.5 µM (inactive)
2,CC(C)c1ccc(/C=N/NC(=O)c2cccc(Cl)c2)cc1,8.64 µM
3,CC1=NN(c2nc(-c3ccc(F)cc3)cs2)C(=O)C1,13.4 µM
4,C=CCn1c(O)c(C2=c3ccccc3=NC2=O)c2ccccc21,7.4 µM
5,Cc1ccc(N/N=C/c2ccncc2)cc1,7.44 µM
6,O=C(Nc1ccccc1)NN(C(=O)CCl)c1ccccc1,6.45 µM
7,O=C(NNc1ccc(-c2csnn2)cc1)c1cc(Cl)cc(Cl)c1,3.02 µM
8,C=C(C)COc1ccc(-c2[nH]ncc2Oc2ccc(OC)cc2)c(O)c1,5.99 µM
9,Cc1ccc(C(=O)NC2c3ccccc3-c3ccccc32)cc1,0.816 µM
10,Cc1ccccc1CNc1ccc(C(CC(N)=O)NC(=O)c2ccc(Br)cc2)cc1[N+](=O)[O-] (stereo not drawn),3.96 µM
11,O=C1[C@@H]2Cc3c([nH]c4ccccc34)C(c3cccc(Br)c3)N2C(=O)CN1C1CCN(Cc2ccccc2)CC1 (stereo partly drawn),7.12 µM
12,CC(=O)c1ccc(N2CCC(c3cc(-c4ccc(Cl)cc4Cl)n[nH]3)CC2)c([N+](=O)[O-])c1,4.17 µM
13,NC(=O)c1sc(-c2ccsc2)cc1NS(=O)(=O)c1ccc(C(F)(F)F)cc1,16.1 µM
14,CCN1CCN(Cc2ccc(NC(=O)c3ccc(C)c(NC(=O)c4cc(-c5ccc(Br)cc5)n[nH]4)c3)cc2C(F)(F)F)CC1,11.6 µM
15,Cc1cc(N2CCN(C)CC2)nc2ccc(NC(=S)NCCC(C)C)cc12,7.91 µM
16,CCCc1cc(-c2nc(-c3ccc(Cl)cc3)cs2)ccn1,13 µM
17,COc1cc(NS(=O)(=O)c2ccc(N/C=C(\C#N)c3nc4cc(Cl)ccc4o3)cc2)nc(OC)n1,7.54 µM
18,Cc1cccc(C)c1OCc1cc(C(=O)N2CC3C[C@@H]4CC2C[C@H](C3)C4)no1,2.69 µM
19,CC(C)(C)OC(=O)N1CCC(NC(=O)c2[nH]cnc2C(=O)Nc2ccc(Cl)cc2)CC1,5.94 µM
20,Cc1ccc(S(=O)(=O)Nc2ccc(C(OC(=O)c3ccccc3[N+](=O)[O-])(C(F)(F)F)C(F)(F)F)cc2)cc1,7.19 µM
21,CCC(C)NCCOc1ccc(C(C)(C)c2ccccc2)cc1 (stereo not drawn),5.92 µM
22,N#Cc1c(NC(=O)c2ccc(Cn3cc(Br)cn3)o2)sc2c1CCCCC2,13.4 µM
23,C=C1CCc2c([nH]c3ccc(OCC(C)C)cc23)C1=O,5.57 µM
24,COC(=O)C(Cc1ccc(N(CCCl)CCCl)cc1)N=Cc1ccccc1O (stereo not drawn),2.54 µM
25,CC(=O)NC1=C(C#N)C(c2ccccc2)c2c(ccc3ccccc23)O1 (stereo not drawn),3.44 µM
26,CC/C(=C(\c1ccccc1)c1ccc(OCCN(C)C)cc1)c1ccccc1,6.69 µM and 6.32 µM

row,Structure (SMILES),AC50
1,NC(=O)CC(NC(=O)Cc1cccc2ccccc12)c1ccc(NCc2ccccc2)c([N+](=O)[O-])c1 (stereo not drawn),5.84 µM
2,O=C(Nc1ccc(F)cc1)c1nc(S(=O)(=O)Cc2ccccc2)ncc1Cl,7.15 µM
3,COC(=O)Nc1nc2ccc(-c3n[nH]c(=O)c4ccccc34)cc2[nH]1,1.88 µM
4,CCc1ccc2c(c1)C1(C(=O)N2)N2CCCC2C(C(=O)c2ccc3ccccc3c2)C12C(=O)Nc1ccccc12 (stereo not drawn),3.69 µM
5,Cc1nn(Cc2c(Cl)cccc2Cl)c(C)c1NC(=O)c1cn(-c2ccccc2)nc1-c1ccccc1,1.19 µM
6,CN(C)/C=C(\C=N\OCc1ccc(Cl)cc1Cl)C(=O)Nc1ccc(Cl)c(Cl)c1,4.22 µM
7,O=C(Nc1cccc(S(=O)(=O)N2CCCCC2)c1)c1ccc([N+](=O)[O-])o1,3.83 µM
8,Cc1nc2sccn2c(=O)c1CCN1CCC(=C(c2ccc(F)cc2)c2ccc(F)cc2)CC1,5.23 µM
9,COc1cc2ccccc2cc1C(=O)Nc1ccccc1Cl,7.94 µM
10,NC(=O)CC(NC(=O)Cc1ccc(Br)cc1)c1ccc(N2CCC(Cc3ccccc3)CC2)c([N+](=O)[O-])c1 (stereo not drawn),14.7 µM
11,OCCNc1nc(Nc2ccc(Cl)c(Cl)c2)nc2ccccc12,6.96 µM
12,Cn1cnc(Sc2ncnc3nc[nH]c23)c1[N+](=O)[O-],3.26 µM
13,CC(C)c1ccc2c(c1)c(SC(C)(C)C)c(CC(C)(C)C(=O)O)n2Cc1ccc(Cl)cc1,2 µM
14,CC(C)Cn1c(O)c(/C=C2\C=NN=C2c2ccccc2)sc1=S,3.54 µM
15,CSc1nc(C)cc(OCC(=O)N/N=C/c2ccccc2O)n1,11 µM
16,COC(=O)c1cc(=O)n(Cc2cccs2)c(=Nc2ccccc2)s1,4.57 µM
17,COc1cccc(NP(=O)(Oc2ccc(Cl)cc2)Oc2ccc(Cl)cc2)c1,5.83 µM
18,Cc1c(C)n(CCc2ccccc2)c2ncnc(NCCCN(C)C)c12,5.52 µM
19,O=C(Nc1ccc(Cl)cc1)c1nc[nH]c1C(=O)NCCN(CCNC(=O)c1[nH]cnc1C(=O)Nc1ccc(Cl)cc1)CCNC(=O)c1[nH]cnc1C(=O)Nc1ccc(Cl)cc1,4.36 µM
20,Cc1cccc(-n2ncc(Cl)c(Cl)c2=O)c1,4.52 µM
21,CC(C)(Oc1ccc(Cl)cc1)C(=O)NC1=NN(c2ccccc2)C(=O)C1,6.11 µM
22,CCCOc1ccccc1-n1sc2c(c1=S)-c1cc(OC)cc3c1N(C(=O)C3=O)C2(C)C,9.1 µM
23,O=S(=O)(NCc1ccncc1)c1ccc(S(=O)(=O)NCC2CCCO2)cc1 (stereo not drawn),> 19.5 µM (inactive)
24,COc1cc2c(cc1NC(=O)CN(C)Cc1cccc(OC)c1OC)oc1ccccc12,3.56 µM
25,Cc1ccc2nc(-c3ccccn3)c(Nc3ccccc3C)n2c1,5.04 µM
26,O=C1C2=C(NC(=S)NC2c2ccc(Cl)cc2)NC(c2ccc(Cl)cc2)N1c1ccc(Cl)cc1 (stereo not drawn),6.8 µM

row,Structure (SMILES),AC50
1,COc1ccc(-c2ccc(C)cc2)cc1[C@H]1[C@@H]2C=CCC[C@@]2(C)C(=O)N1Cc1ccccc1,3.87 µM
2,O=C(/C=C/c1ccc2c(c1)OCO2)NCCSCc1ccc(Cl)cc1,0.957 µM
3,Cc1cccc(-n2cc(CN(C)Cc3nccn3C)c(-c3cccc(F)c3)n2)c1,15.5 µM
4,O=C1C(C2=NC(c3ccccn3)C3C(=O)N(c4ccc(Cl)cc4Cl)C(=O)C23)=C(O)c2ccccc21 (stereo not drawn),> 19.5 µM (inactive)
5,CCOC(=O)c1nn(-c2ccc(F)cc2)c(-c2ccccc2)c1C(=O)c1ccccc1,11.8 µM
6,O=C1C=C(c2ccc(Cl)c(C(F)(F)F)c2)C[C@@H](c2ccc3c(c2)OCO3)C1,6.37 µM
7,CC[C@@H]1Cc2cc(O)ccc2C2=C1c1ccc(O)cc1C[C@H]2CC,4.15 µM
8,O=C(NC(=S)Nc1cccc(Cl)c1N1CCCCC1)c1ccc2c(c1)OCCO2,1.52 µM
9,Cc1ccc(NC(=O)c2nc(S(=O)(=O)Cc3ccccc3C)ncc2Cl)cc1C,7.64 µM
10,Cc1ccc(N2C(=O)NC(=O)/C(=C/C=C/c3ccco3)C2=O)cc1,3.29 µM
11,COc1ccccc1-c1sc2cc3c(cc2c1C#Cc1cncn1C)OCO3,5.73 µM
12,Cc1ccc([N+](=O)[O-])cc1-c1ccc(/C=C(\C#N)c2[nH]nc(N)c2C#N)o1,4.84 µM
13,O=C(Nc1ccc(Nc2ccccc2)cc1)c1ccccc1,13.5 µM
14,CCCC/C(C)=C/[C@@H](NP(=O)(c1ccccc1)c1ccccc1)c1ccccc1,6.68 µM
15,Cc1cc(Nc2cccc(Cl)c2)nc(NCc2ccccc2)n1,3.73 µM
16,C=C(C)COc1ccc(-c2[nH]ncc2-c2ccc(OC)cc2)c(O)c1,8.86 µM
17,COc1ccc(CCC(C)NCC2CCCCC2)cc1 (stereo not drawn),1.66 µM
18,CCCc1cc(-c2nc(N)ncc2-c2ccc3c(c2)OCCCO3)c(O)cc1OC,4.18 µM
19,CN1CCN(c2ccc(S(=O)(=O)N3CCCCC3)cc2NC(=O)/C=C/c2ccc(Cl)c([N+](=O)[O-])c2)CC1,4.42 µM
20,CCOC(=O)[C@@H]1[C@H]2COc3cc(OC)ccc3[C@H]2N2C(=O)N(c3ccc(C(F)(F)F)cc3)C(=O)[C@]12C,4.62 µM
21,COc1ccc(/C=N/N(Cc2ccccc2)c2ccccc2)cc1O,6.77 µM
22,Cc1ccc(C)c(-c2csc(N)c2C(=O)OC(C)C)c1,8.52 µM
23,CCCCn1c(C2CCCCC2)nc2cc3[nH]c(=O)c(C(C)C)nc3cc21,1.52 µM
24,CCN(CC)S(=O)(=O)c1cccc(C(=O)N/N=C/c2cccc(O)c2O)c1,7.97 µM
25,Cc1ccsc1/C=C/c1ccc2cccc(O)c2n1,17 µM
26,COc1ccc(/C=N/N(c2ccccc2)c2ccccc2)cc1O,7.09 µM

row,Structure (SMILES),AC50
1,C[C@]12CC[C@H](O)C[C@H]1CC[C@@H]1[C@@H]2C[C@@H](O)[C@]2(C)[C@@H](C3=CC(=O)OC3)CC[C@]12O,0.654 µM
2,C#CCOCCOCCOCCNc1nc(N2CCN(C(=O)CCCCCCCCCCNC(=O)Cn3cc(C[C@@H](C)O)nn3)CC2)nc(N2CCN(C(=O)CCCCCCCCCCNC(=O)[C@@H]([C@H](C)O)n3cc(C)nn3)CC2)n1,4.83 µM
3,Brc1cccc(OCCN2CCc3ccccc3C2)c1,> 19.5 µM (inactive)
4,Oc1ccc(C[C@@H]2CNC(=S)N2CCCCC2CCCCC2)cc1,6.13 µM
5,Cn1cncc1C#Cc1c(-c2ccsc2)sc2ccccc12,7.26 µM
6,Nc1[nH]n2c(=O)cc(-c3ccccc3)nc2c1N=Nc1ccccc1,13.3 µM
7,Clc1cccc(Nc2nc(-c3ccncc3)cs2)c1,5.03 µM
8,O=C(N/N=C/c1cc(Cl)ccc1O)c1ccc(Br)cc1,4.41 µM
9,COc1ccc(C(C)NCCC(c2ccc(OC(C)C)cc2)c2ccccc2OC)cc1 (stereo not drawn),5.44 µM
10,CC(C)Cc1nc2oc3c(Cl)ncnc3c2c2c1CCC2,3.72 µM
11,COc1ccc2c(c1)[nH]c1c(=O)n(/N=C/C3C(C)C=C(C)CC3C)c(=O)[nH]c12 (stereo not drawn),> 19.5 µM (inactive)
12,CCCCNc1c(-c2ccc(-c3cccc(Cl)c3)cc2)nc2ccccn12,3.87 µM
13,COC(=O)c1ccc(/C=C/c2c(-c3ccsc3)oc3ccc(N4CCOCC4)cc23)cc1,6.37 µM
14,CCCC(=O)Nc1nc2ccc(NC(=O)c3c(F)c(F)c(OC)c(F)c3F)cc2s1,1.56 µM
15,COc1ccc(Cc2nnc(N/N=C/c3ccccc3O)[nH]c2=O)cc1OC,3.4 µM
16,COc1ccc2sc(-c3ccc(N(C)C)cc3)c(C#Cc3cncn3C)c2c1,2.18 µM
17,O=C(/C=C/c1cc2ccccc2o1)c1ccccc1O,10.1 µM
18,Cc1ccc(NC(=O)c2nc(S(=O)(=O)Cc3ccccc3)ncc2Cl)cc1,6.39 µM
19,COc1ccc(O)c(/C=N/Nc2nc(Nc3ccccc3)nc(-n3nc(C)cc3C)n2)c1,3.52 µM
20,N#CC(C#N)=C(C#N)c1ccc(Nc2ccccc2)cc1,3.14 µM
21,C/C(=N\Nc1ccccc1)c1c(O)n(C)c(=O)n(C)c1=O,4.05 µM
22,Cc1ccc(NC(=O)Cn2c(O)c(N=NC(=O)c3cc4ccccc4cc3O)c3ccccc32)cc1,3.92 µM
23,O=[N+]([O-])c1c(NCCCO)cc(Sc2ccc(Cl)cc2)c2nonc12,4.89 µM
24,CC(C)(C)c1cc(C(=O)NNc2cccc(Cl)c2)n(Cc2ccccc2)n1,2.07 µM
25,O=C(N/N=C/c1cc(Cl)ccc1O)C(=O)Nc1ccccc1OC(F)(F)C(F)F,3.9 µM
